Literature values, collected in patent publication US20230055121A1, “AQUEOUS SUSPENSION COMPOSITION CONTAINING SIROLIMUS OR SALT THEREOF” (SANTEN PHARMACEUTICAL CO., LTD., priority 2019, published 2023).

For Sirolimus, the Solubility in water is listed as “almost insoluble in water”.
